Results on 15 compounds are retold here after patent publication US8987264B2, “1,3,5-triazine derivatives of spiro bicyclic oxalamide-compounds for treatment of hepatitis C” (priority 2012, dated 2015).

Where two headings read alike, the source gives them in different places.

This assay has as its system HCV pseudoparticles, genotype 1a (H77C) E1 and E2 envelope glycoproteins. Description: HCV pseudoparticle infection assay (luciferase reporter, Huh7 cells). The note with it: Hepatitis C virus, Huh-7, 48 h, read-out: EC50 (nM) 1a (H77C), HCV pseudoparticles genotype 1a (H77C), Huh7 cells, luciferase 2 days after infection. The assay is classed as cell-based.

For the compound `NC(=O)C(=O)N1CCC2(CCN(C(=O)c3ccc(Nc4nc(NC5(c6ccc(Cl)cc6)CC5)nc(OCC(F)(F)F)n4)cc3)C2)C1` (stereo not drawn) [Compound 1001], the EC50 by setting is: (class symbol) 0.01 to 10 nM; (numeric value) 1.64 nM.
Turning to `O=C(Nc1cccc(F)c1)C(=O)N1CCC2(CCN(C(=O)c3ccc(Nc4nc(NC5(c6ccc(Cl)cc6)CC5)nc(OCC(F)(F)F)n4)cc3)C2)C1` (stereo not drawn) [Compound 1002], under “class symbol”, the EC50 was in the range of 0.01 to 10 nM.
Turning to `O=C(Nc1ccc(F)cc1)C(=O)N1CCC2(CCN(C(=O)c3ccc(Nc4nc(NC5(c6ccc(Cl)cc6)CC5)nc(OCC(F)(F)F)n4)cc3)C2)C1` (stereo not drawn) [Compound 1003], the 50% effective concentration (EC50) (class symbol) lay in the range of 0.01 to 10 nM.
Same read-out and setting: then `Cc1cc(NC(=O)C(=O)N2CCC3(CCN(C(=O)c4ccc(Nc5nc(NC6(c7ccc(Cl)cc7)CC6)nc(OCC(F)(F)F)n5)cc4)C3)C2)no1` (stereo not drawn) [Compound 1004], with 0.01 to 10 nM; and `O=C(Nc1ccccc1)C(=O)N1CCC2(CCN(C(=O)c3ccc(Nc4nc(NC5(c6ccc(Cl)cc6)CC5)nc(OCC(F)(F)F)n4)cc3)C2)C1` (stereo not drawn) [Compound 1005], with 0.01 to 10 nM; and `O=C(NCc1ccc(F)cc1)C(=O)N1CCC2(CCN(C(=O)c3ccc(Nc4nc(NC5(c6ccc(Cl)cc6)CC5)nc(OCC(F)(F)F)n4)cc3)C2)C1` (stereo not drawn) [Compound 1006], with 0.01 to 10 nM.
With `Cc1ccc(NC(=O)C(=O)N2CCC3(CCN(C(=O)c4ccc(Nc5nc(NC6(c7ccc(Cl)cc7)CC6)nc(OCC(F)(F)F)n5)cc4)C3)C2)cc1` (stereo not drawn) [Compound 1007], the EC50 by setting is: (class symbol) 0.01 to 10 nM; (numeric value) 0.255 nM.
For `O=C(Nc1ccc(F)cc1F)C(=O)N1CCC2(CCN(C(=O)c3ccc(Nc4nc(NC5(c6ccc(Cl)cc6)CC5)nc(OCC(F)(F)F)n4)cc3)C2)C1` (stereo not drawn) [Compound 1008], the EC50 (class symbol) lay in the range of 0.01 to 10 nM.
The same measure, in the same setting: the result for `O=C(Nc1cc(F)cc(F)c1)C(=O)N1CCC2(CCN(C(=O)c3ccc(Nc4nc(NC5(c6ccc(Cl)cc6)CC5)nc(OCC(F)(F)F)n4)cc3)C2)C1` (stereo not drawn) [Compound 1009] reads 0.01 to 10 nM.
The same measure, in the same setting: then `O=C(NC1CCCCC1)C(=O)N1CCC2(CCN(C(=O)c3ccc(Nc4nc(NC5(c6ccc(Cl)cc6)CC5)nc(OCC(F)(F)F)n4)cc3)C2)C1` (stereo not drawn) [Compound 1010], with 0.01 to 10 nM; and `O=C(C(=O)N1CCC2(CCN(C(=O)c3ccc(Nc4nc(NC5(c6ccc(Cl)cc6)CC5)nc(OCC(F)(F)F)n4)cc3)C2)C1)N1CCCCC1` (stereo not drawn) [Compound 1011], with 0.01 to 10 nM; and `O=C(Nc1nccs1)C(=O)N1CCC2(CCN(C(=O)c3ccc(Nc4nc(NC5(c6ccc(Cl)cc6)CC5)nc(OCC(F)(F)F)n4)cc3)C2)C1` (stereo not drawn) [Compound 1012], with 0.01 to 10 nM.
Turning to `O=C(C(=O)N1CCC2(CCN(C(=O)c3ccc(Nc4nc(NC5(c6ccc(Cl)cc6)CC5)nc(OCC(F)(F)F)n4)cc3)C2)C1)N1CCc2ccccc2C1` (stereo not drawn) [Compound 1013], the EC50 by setting is: (class symbol) 0.01 to 10 nM; (numeric value) 4.86 nM.
For `CC(C)CNC(=O)C(=O)N1CCC2(CCN(C(=O)c3ccc(Nc4nc(NC5(c6ccc(Cl)cc6)CC5)nc(OCC(F)(F)F)n4)cc3)C2)C1` (stereo not drawn) [Compound 1014], where the note is “class symbol”, the EC50 was 0.01 to 10 nM.
Regarding `Cc1nnc(NC(=O)C(=O)N2CCC3(CCN(C(=O)c4ccc(Nc5nc(NC6(c7ccc(Cl)cc7)CC6)nc(OCC(F)(F)F)n5)cc4)C3)C2)s1` (stereo not drawn) [Compound 1015], where the note is “class symbol”, the EC50 was in the range of 0.01 to 10 nM.

What is called EC50 is the concentration that produces a half-maximal response.
